Reference: patent publication US20160045531A1, “COMBINATION THERAPY FOR TREATING CANCER” (EPIZYME, INC., priority 2014, published 2016)

Key:
[1] = tested on: MV4-11 (MLL-AF4) cell line; test: Combination proliferation study with Compound A2 (Example 1), MV4-11; format: cell-based, human; conditions: 7 Day Cotreatment; Chou-Talalay CI
Text: (§1) The acute myelogenous leukemia cell lines MV4-11 (MLL-AF4) and MOLM-13 (MLL-AF9) were obtained from American Type Culture Collection (ATCC; Rockville, Md.) and Deutsche Sammlung von Mikroorganismen and Zellkulturen (DSMZ; Braunschweig, Germany) respectively. […] Further, strong synergism is achieved when the CI value falls below 0.3.

[2] = tested on: MOLM-13 (MLL-AF9) cell line; test: Combination proliferation study with Compound A2 (Example 1), MOLM-13; format: cell-based, human; conditions: 7 Day Cotreatment; Chou-Talalay CI
Text: as §1

[3] = tested on: MOLM-13 cells; test: Flow cytometric analysis of cell cycle and Annexin V, MOLM-13; format: cell-based, human; conditions: MOLM-13
Method: (§2) On Day 0 MOLM-13 cells are seeded at 3,000 cells/mL. On Day 7 and Day 10 MOLM-13 cells are counted and reseeded at 50,000 cells/mL. […] On Day 10 They were redosed again. On Day 14 the experiment was terminated.
To evaluate the fraction of cells in each cell cycle, flow cytometric analysis was performed. FACS analysis for detection of cell death by apoptosis, and cell cycle was performed.
Samples were analyzed using the Guava EasyCyte Plus System (Millipore). Cells for cell cycle analysis were pelleted by centrifugation at 200×g for 5 minutes at 4° C., washed twice with ice cold PBS then fixed with 70% ice cold ethanol. All samples were analyzed together at end of experiment. Following fixation cells were washed with PBS and stained with the Guava cell cycle reagent (Millipore 4500-0220) for 30 minutes. Samples were analyzed using the Guava EasyCyte Plus System (Millipore).

[4] = tested on: SKM-1 (non-MLL-rearranged AML); test: Combination proliferation study with Compound A2 (Examples 2/3), SKM-1; format: cell-based, human; conditions: in combination with Compound A2
Method: (§3) The HP-D300 digital dispenser (Tecan) was used to dispense compounds in a combinatorial matrix. […] Cell viability was measured via ATP content using CellTiter-Glo® (Promega).
(§4) Viability was determined using CellTiter-Glo® (Promega).

[5] = tested on: MV4-11 (MLL-AF4); test: Proliferation assay and calculation of synergism (Example 5), MV4-11; format: cell-based, human; conditions: for Combination with Compound A2, MV4-11 (MLL-AF4): 7 Day Cotreatment Model, Chou-Talalay CI; for Combination with Compound A2, pre-treatment model with washout, MV4-11: Compound A2 washed out prior to the addition of the SOC agent; for Combination with Compound A2, pre-treatment model, MV4-11: no Compound A2 washout
Method: (§5) MV4-11 cells were maintained in IMDM supplemented with 10% fetal bovine serum. […] They were cultured in flasks or plates in a humidified 5% CO2 atmosphere.
(§6) Proliferation studies were performed using MOLM-13, MV4-11 and SKM-1 cell lines in vitro to evaluate the cancer cell killing effect of a combination of two agents together on cell growth. Initial proliferation studies were performed to determine the IC50 values of a given compound in each cell line. The cell counts were measured by ATP quantitation using the Promega Cell Titer Glo kit and luminescence values correspond to the amount of ATP in a given well.
(§7) These studies were performed to evaluate both the combinatorial effect of compounds on cell killing and the durability of the effect by washing out one of the agents.
(§8) Compounds evaluated for synergy in the co-treatment phase were tested in a range which was bracketed around the IC50's. The compounds were plated to a 96 well plate in a matrix format which includes increasing concentrations of each drug in the combination in a constant ratio, in addition to the effect of each compound alone in the study. […] Maximum and minimum inhibition (DMSO alone) controls were used in each plate to calculate fraction affected (Fa) of a test well. DMSO concentration was kept at 0.1% v/v. The drug combination analysis was performed utilizing the Chou-Talalay method. Synergy was determined using the software package Calcusyn by Biosoft. The combination index (CI) is the term used to describe the level of synergy or antagonism in a given test system. A combination index less than one indicates synergy, and a CI greater than one indicates antagonism.
(§9) The drug combination analysis was performed using the Chou-Talalay method. Graphs representing values of combination index (CI) versus Fractional effect (Fa) known as Fa-CI plots were generated and synergy was evaluated. Drug synergy was statistically defined by CI values less than 1, antagonism by CI>1 and additive effect by CI equal to 1.

[6] = tested on: MOLM-13 cells; test: Pre-treatment model with reverse order of addition (Ara-C first), MOLM-13; format: cell-based, human; conditions: Ara-C 3 days
Method: MOLM-13 cells were pretreated with 9 concentrations of Ara-C or DMSO for 3 days.
Cell viability was measured via ATP content using CellTiter-Glo® (Promega).
In addition, the effect of sequence of addition of compounds was studied by measuring the ten day proliferation of cells pretreated with Ara-C in a 3+7 model. This experiment was performed by first pretreating MOLM-13 cells with increasing concentrations of Ara-C for 3 days.

[7] = tested on: MV4-11 (MLL-AF4 expressing acute biphenotypic leukemia cell line); test: Combination proliferation study with Compound A2 (Examples 2/3), MV4-11; format: cell-based, human; conditions: in combination with Compound A2; Chou-Talalay CI
Method: as §3, §4

[8] = tested on: MOLM-13 cells; test: CD11b and CD14 expression by flow cytometry, MOLM-13; format: cell-based, human
Method: as §2
The cells were prepared by washing twice in PBS, followed by fixation in 4% formaldehyde for ten minutes at 37° C. After fixation cells were washed and blocked with blocking buffer for 10 minutes at room temperature. Cells were then incubated in presence of anti-CD14, anti-CD11b or anti-IgG antibody for 1 hour at room temperature while rotating. Cells were washed, re-suspended in PBS and 5,000 events were analyzed using ExpressPro software on the GuavaCyte Plus System.

[9] = tested on: Molm-13 (MLL-AF9 expressing acute myeloid leukemia); test: Combination proliferation study with Compound A2 (Examples 2/3), MOLM-13; format: cell-based, human; conditions: for Combination studies with Compound A2, MOLM-13 MLL-AF9: in combination with Compound A2, Chou-Talalay CI
Method: as §3, §4

[10] = tested on: MOLM-13 (MLL-AF9); test: Proliferation assay and calculation of synergism (Example 5), MOLM-13; format: cell-based, human; conditions: for Combination with Compound A2, pre-treatment model with washout, MOLM-13: Compound A2 washed out prior to the addition of the SOC agent; for Combination with Compound A2, pre-treatment model, MOLM-13: no Compound A2 washout; for Combination with Compound A2, MOLM-13 (MLL-AF9): 7 Day Cotreatment Model, Chou-Talalay CI
Method: as §5, §6, §7, §8, §9

[11] = tested on: SKM-1 cells; test: Proliferation assay and calculation of synergism (Example 5), SKM-1; conditions: combination with Compound A2
Text: The acute myelogenous leukemia cell line MV4-11 (MLL-AF4) (CRL-9591) was obtained from American Type Culture Collection (ATCC), Manassas, Va. and both MOLM-13 (MLL-AF9) (ACC 554) and SKM-1 (ACC 547) cells were obtained from Leibniz Institute DSMZ-German Collection of Microorganisms and Cell Cultures, Braunschweig, Germany. MV4-11 cells were maintained in IMDM supplemented with 10% fetal bovine serum. MOLM-13 and SKM-1 cells were maintained in Roswell Park Memorial Institute medium (RPMI) supplemented with 10% fetal bovine serum. They were cultured in flasks or plates in a humidified 5% CO2 atmosphere.
as §6, §7, §8, §9

SMILES	Combination effect with Compound A2 on proliferation, MV4-11 [1]	Combination studies with Compound A2, SKM-1 AML: Non-rearranged [4]	Combination with Compound A2, MV4-11 (MLL-AF4) [5]	Combination with Compound A2, MOLM-13 (MLL-AF9) [10]	further results
N[C@@H]1C[C@H]1c1ccccc1 (racemic) [Tranylcypromine]	synergy				Combination effect with Compound A2 on proliferation, MOLM-13 [2]: synergy
Nc1ccn([C@@H]2O[C@H](CO)[C@@H](O)[C@@H]2O)c(=O)n1 [Ara-C, cytarabine]	Synergy (A combination index less than one indicates synergy)	No Combination	Strong Synergy		Apoptosis induction over 14 day course, single agent ([3]; 156 nM Compound A2 or 63 nM Ara-C): modest increase in apoptotic cell population; Apoptosis induction over 14 day course, combination with Compound A2 ([3]; 156 nM Compound A2 plus 63 nM Ara-C): enhance apoptosis; Sub-G1 cell population, combination with Compound A2 ([3]; 156 nM Compound A2 plus 63 nM Ara-C, 10 and 14 days): significant increase in the population of sub-G1 cells; Sub-G1 cell population, single agent ([3]; 14 day treatment, 156 nM Compound A2 or 63 nM Ara-C): minimal effect; Combination with Compound A2, Ara-C pretreatment then cotreatment ([6]; then Compound A2 and Ara-C 7 days): Synergy; Combination with Compound A2, Ara-C pretreatment then washout ([6]; washed out, then Compound A2 7 days): Combination benefit is maintained; Combination studies with Compound A2, MV4-11 MLL-AF4 [7]: Strong; Differentiation markers CD11b and CD14, combination with Compound A2 [8]: time and concentration dependent up-regulation; Differentiation markers CD11b and CD14, single agent [8]: time and concentration dependent up-regulation
Nc1ncn([C@@H]2O[C@H](CO)[C@@H](O)[C@H]2O)c(=O)n1 [Azacitidine, azacitidine]		No Combination			
COc1cccc2c1C(=O)c1c(O)c3c(c(O)c1C2=O)C[C@@](O)(C(C)=O)C[C@@H]3O[C@H]1C[C@H](N)[C@H](O)[C@H](C)O1 [Daunorubicin, daunorubicin]	Synergy (A combination index less than one indicates synergy)	No Combination			Combination studies with Compound A2, MOLM-13 MLL-AF9 [9]: acts synergistically; Combination studies with Compound A2, SKM-1 AML: Non-rearranged ([4]; listed as daunorubicin): did not act synergistically; Combination with Compound A2, pre-treatment model with washout, MOLM-13 [10]: synergistic anti-proliferative activity was maintained; Combination with Compound A2, pre-treatment model, MOLM-13 [10]: synergistic antiproliferative activity; Combination with Compound A2, pre-treatment model with washout, MV4-11 [5]: synergistic anti-proliferative activity was maintained; Combination with Compound A2, pre-treatment model, MV4-11 [5]: synergistic antiproliferative activity; Combination studies with Compound A2, MV4-11 MLL-AF4 [7]: acts synergistically; Effect of Compound A2 on the antiproliferative activity of the second agent in SKM-1 [11]: did not affect the antiproliferative activity
Nc1ncn([C@H]2C[C@H](O)[C@@H](CO)O2)c(=O)n1 [Decitabine, decitabine]		No Combination			
COc1cc2c(cc1-c1c(C)noc1C)ncc1[nH]c(=O)n([C@H](C)c3ccccn3)c12 [IBET-151]	Synergy (A combination index less than one indicates synergy)	IC50 not achieved			
Cc1sc2c(c1C)C(c1ccc(Cl)cc1)=N[C@@H](CC(=O)OC(C)(C)C)c1nnc(C)n1-2 [JQ1]			Additive (additive effect by CI equal to 1)	Additive (additive effect by CI equal to 1)	
Nc1cccc2c1CN(C1CCC(=O)NC1=O)C2=O (stereo not drawn) [Lenalidomide, lenalidomide]			Combination Benefit	Combination Benefit	
CN(Cc1cnc2nc(N)nc(N)c2n1)c1ccc(C(=O)N[C@@H](CCC(=O)O)C(=O)O)cc1 [Methotrexate, methotrexate]			Additive (additive effect by CI equal to 1)	Antagonistic/Additive	
O=C1c2c(O)ccc(O)c2C(=O)c2c(NCCNCCO)ccc(NCCNCCO)c21 [Mitoxantrone]	Synergy (A combination index less than one indicates synergy)				
CC1(C)CCC(c2ccc(Cl)cc2)=C(CN2CCN(c3ccc(C(=O)NS(=O)(=O)c4ccc(N[C@H](CCN5CCOCC5)CSc5ccccc5)c(S(=O)(=O)C(F)(F)F)c4)cc3)CC2)C1 [Navitoclax]	synergy				Combination effect with Compound A2 on proliferation, MOLM-13 [2]: synergy
Cc1[nH]c2ccccc2c1CCNCc1ccc(/C=C/C(=O)NO)cc1 [Panobinostat]			Antagonistic (antagonism by CI>1)		
C[C@]12C=CC(=O)C=C1CC[C@@H]1[C@@H]2[C@@H](O)C[C@@]2(C)[C@H]1CC[C@]2(O)C(=O)CO [Prednisolone, prednisolone]			Antagonistic (antagonism by CI>1)	Antagonistic (antagonism by CI>1)	
CC(C)(C)c1cc(NC(=O)Nc2ccc(-c3cn4c(n3)sc3cc(OCCN5CCOCC5)ccc34)cc2)no1 [Quizartinib]	synergy				
CC(C)C[C@H](NC(=O)[C@H](Cc1ccccc1)NC(=O)c1cnccn1)B(O)O [Velcade, bortezomib]			Combination Benefit	Combination Benefit	
Nc1ncn([C@@H]2O[C@H](CO)[C@@H](O)[C@H]2O)c(=O)n1 [Vidaza]	Synergy (A combination index less than one indicates synergy)				
CC[C@]1(O)C[C@H]2CN(CCc3c([nH]c4ccccc34)[C@@](C(=O)OC)(c3cc4c(cc3OC)N(C=O)[C@H]3[C@@](O)(C(=O)OC)[C@H](OC(C)=O)[C@]5(CC)C=CCN6CC[C@]43[C@@H]65)C2)C1 [Vincristine, vincristine]			Additive (additive effect by CI equal to 1)	Additive (additive effect by CI equal to 1)	
O=C(CCCCCCC(=O)Nc1ccccc1)NO [Vorinostat]			Antagonistic (antagonism by CI>1)	Additive/Synergy	
Nc1ncn([C@@H]2O[C@H](CO)[C@@H](O)[C@H]2O)c(=O)n1 [azacytidine, Azacytidine]			synergistic anti-proliferative activity	synergistic anti-proliferative activity	Effect of Compound A2 on the antiproliferative activity of the second agent in SKM-1 [11]: no impact on the antiproliferative activity
Nc1ccn([C@@H]2O[C@H](CO)[C@@H](O)[C@@H]2O)c(=O)n1 [cytarabine]		did not act synergistically			Combination with Compound A2, Compound A2 removed at day 7 ([9]; Molm-13, Compound A2 removed at day 7 prior to cytarabine): durable combination benefit; Combination studies with Compound A2, MOLM-13 MLL-AF9 [9]: acts synergistically; Combination with Compound A2, pre-treatment model with washout, MOLM-13 [10]: synergistic anti-proliferative activity was maintained; Combination with Compound A2, pre-treatment model, MOLM-13 [10]: synergistic antiproliferative activity; Combination with Compound A2, pre-treatment model with washout, MV4-11 [5]: synergistic anti-proliferative activity was maintained; Combination with Compound A2, pre-treatment model, MV4-11 [5]: synergistic antiproliferative activity; Combination studies with Compound A2, MV4-11 MLL-AF4 [7]: acts synergistically; Effect of Compound A2 on the antiproliferative activity of the second agent in SKM-1 [11]: did not affect the antiproliferative activity
